The text below walks through data of publication PMC6539602, “Antioxidant and Photoprotective Activity of Apigenin and Its Potassium Salt Derivative in Human Keratinocytes and Absorption in Caco-2 Cell Monolayers” (International Journal of Molecular Sciences, 2019).

Structures are written as SMILES.

Series [1] is described as follows: Trolox equivalent antioxidant capacity (TEAC). In kind it is biochemical. The conditions noted are these: Trolox equivalents per millimole of compound; mean ± SD. As for the experimental part: (§1) Three different methods were performed to determine the antioxidant capacity of both apigenins. The Trolox equivalent antioxidant capacity (TEAC) was performed, as previously reported to establish the ABTS^·+ scavenging ability of both compounds [21]. The TEAC of the samples was calculated from the standard curve of Trolox, and the results are expressed in micromoles of Trolox equivalents (TE) per millimole of compound. The ferric reducing antioxidant power (FRAP) assay was performed, as described elsewhere. The reduction of a ferric-tripyridyltriazine complex was estimated, and the results are expressed in micromoles of Fe^2+ per millimole of compound. To assay the capacity of the compounds to scavenge peroxyl radicals, a validated assay of the oxygen radical absorbance capacity (ORAC) method was used. The ORAC assay was carried out on a microplate reader (POLAstar Omega, BMG LabTech GmbH, Offenburg, Germany) with 495 nm excitation and 520 nm emission filters to monitor fluorescein oxidation. The results are expressed in micromoles of TE per millimole of compound.

A further series relates to Caco-2 cell monolayer. On the set-up: method as in PMID 29186068. The conditions noted are these: Caco-2 cell model; cited from earlier work.
Series [2] in a line: Oxygen radical absorbance capacity (ORAC). It counts as biochemical. The conditions noted are these: Trolox equivalents per millimole of compound; mean ± SD. As for the experimental part: as §1
The nature of series [3]: Ferric reducing antioxidant power (FRAP). In kind it is biochemical. The conditions noted are these: mean ± SD. On the procedure: as §1
Series [4] can be described thus: Caco-2 cell monolayer bidirectional permeability. The conditions noted are these: human. In kind it is in vitro ADME. As for the experimental part:
The cells were seeded into 6-well inserts with a polyethylene terephthalate (PET) membrane (pore size of 0.4 µm) (BD Falcon) at a density of 1.0 × 10^5 cells. Cell culture was maintained at 37 °C under 90% humidity and 5% CO2. The medium was replaced every 2–3 days for both the apical (AP) and basolateral (BL) chambers of the transwell filters. Cell monolayers were used 19–21 days after seeding, once confluence and differentiation were achieved. To check the integrity of each cell monolayer, the transepithelial electrical resistance (TEER) was measured before and after the experiments with an epithelial voltohmmeter (Millicell-ERS®). Permeability studies were performed by adding apigenin and apigenin-K at a concentration of 50 µM dissolved in HBSS medium (pH 7.4). The transport experiment was initiated by removing the culture medium from the AP and BL chambers. HBSS medium was prewarmed to wash the Caco-2 monolayers twice and, subsequently, to incubate the monolayers for 30 min at 37 °C. Afterwards, the test compounds were added to the apical (AP) or basolateral (BL) chambers to perform bidirectional permeability studies, while the receiving chamber contained the corresponding volume of HBSS. The six-well plate containing the cell monolayers was put into an orbital environmental shaker, which was set at a constant temperature (37 °C) and agitation rate (54 rpm) for the duration of the permeability experiments. […] The apparent permeability (Papp) values for each compound and direction can be calculated according to the following equation:(2) Papp= dQ/dt×1/A×C0×60 where Papp is the apparent permeability (cm/s), dQ/dt is the steady state flux, A is the diffusion area of the membrane (cm^2), C0 is the initial compound concentration in the donor compartment (µM) and 60 is a conversion factor [54]. […] In addition, the efflux ratio (ER) was calculated to determine the absorption mechanism, such as the ratio of Papp (BL-AP) to Papp (AP-BL). (3) ER= Papp (BL-AP)/Papp (AP-BL) The analyses of the samples from the permeability assay were analyzed via a high-performance liquid chromatograph Agilent LC 1100 series (Agilent Technologies, Inc., Palo Alto, CA, USA) controlled by the ChemStation software and equipped with a pump, autosampler, column oven and UV-Vis diode array detector. The samples were separated on a Poroshell 120 SB-C18 column (2.7 µm, 4.6 × 150 mm) after each 10 µL injection and were monitored at 280 nm. […] Quantitative evaluations of the apigenin or apigenin-K concentration were performed using the corresponding calibration graph of each compound with a six-point regression curve (r^2 > 0.999).
On the technique in general: Caco-2 monolayers are a common model of the intestinal barrier.

`O=c1cc(-c2ccc(O)cc2)oc2cc(O)cc(O)c12` [Apigenin, 4′,5,7-trihydroxyflavone]: in series [1], the TEAC is on record as 2022.2 ± 154.8 µmol TE/mmol. For the same molecule, the “apparent permeability relative to its flavonol kaempferol” value in the series on Caco-2 cell monolayer is listed as 2.5 fold. In addition, the ORAC in series [2] is 887.9 ± 5.8 µmol TE/mmol. Moreover, the FRAP in series [3] was 113.2 ± 12.2 µmol Fe^2+/mmol. The efflux ratio (usually a quotient of directional permeabilities that is used to spot active efflux) at 120 min, 50 µM in series [4] (Caco-2, pH 7.4, Papp (BL-AP)/Papp (AP-BL)) amounted to 0.51. Besides, the Papp A→B – broadly, the apparent permeability from the apical to the basolateral side of a cell layer – at 120 min, 50 µM in series [4] (Caco-2, apical-to-basolateral, 50 µM, HBSS pH 7.4, 120 min, mean of 6 replicates ± SD) was determined as 18.1 ± 1.7 ×10⁻⁶ cm/s. Further, in series [4] (Caco-2, basolateral-to-apical, 50 µM, HBSS pH 7.4, 120 min, mean of 6 replicates ± SD), the Papp B→A (as a rule, the apparent permeability from the basolateral to the apical side of a cell layer) at 120 min, 50 µM was 9.3 ± 1.3 ×10⁻⁶ cm/s. Further, the Papp (as a rule, the rate of passage across a membrane or cell layer, normalised by area and donor concentration) at 120 min, 50 µM in series [4] (pH 7.4, Caco-2 cell model, read-out: apparent permeability (Papp)) is 18.1 ×10⁻⁶ cm/s.
